ChEMBL document CHEMBL4507283, “Data for DCP probe BI-1935” (2021)

How the values were obtained:
[1] = target: Casein kinase I isoform gamma-1 (Homo sapiens) (UniProt Q9HCP0); details: Compound concentration 1000.0 nM
[2] = target: Rho-associated protein kinase 2 (Homo sapiens) (UniProt O75116); details: Compound concentration 1000.0 nM
[3] = target: Tyrosine-protein kinase ITK/TSK (Homo sapiens) (UniProt Q08881); details: Compound concentration 1000.0 nM
[4] = target: Serine/threonine-protein kinase 32C (Homo sapiens) (UniProt Q86UX6); details: Compound concentration 1000.0 nM
Serine/threonine-protein kinase 32C (Homo sapiens), sequence (Q86UX6 whole entry): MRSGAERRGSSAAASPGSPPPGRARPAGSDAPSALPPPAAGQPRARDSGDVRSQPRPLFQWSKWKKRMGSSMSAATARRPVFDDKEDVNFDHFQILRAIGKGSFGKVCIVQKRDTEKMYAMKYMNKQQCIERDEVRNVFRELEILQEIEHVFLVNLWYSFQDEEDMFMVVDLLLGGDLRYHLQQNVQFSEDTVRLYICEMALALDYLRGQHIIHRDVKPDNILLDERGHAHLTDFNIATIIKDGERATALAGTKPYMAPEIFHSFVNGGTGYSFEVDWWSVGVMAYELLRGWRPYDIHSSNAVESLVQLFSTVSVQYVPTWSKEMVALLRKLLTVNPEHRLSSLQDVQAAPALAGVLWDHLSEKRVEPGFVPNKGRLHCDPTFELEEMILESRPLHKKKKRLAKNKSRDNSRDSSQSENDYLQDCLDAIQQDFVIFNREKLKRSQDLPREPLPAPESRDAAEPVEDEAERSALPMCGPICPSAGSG

[5] = system: Epidermal growth factor receptor (Homo sapiens), P00533 [G719C]; details: Compound concentration 1000.0 nM
[6] = target: Epidermal growth factor receptor (Homo sapiens) (UniProt P00533); details: Compound concentration 1000.0 nM
[7] = target: Serine/threonine-protein kinase TAO1 (Homo sapiens) (UniProt Q7L7X3); details: Compound concentration 1000.0 nM
[8] = target: Microtubule-associated serine/threonine-protein kinase 1 (Homo sapiens) (UniProt Q9Y2H9); details: Compound concentration 1000.0 nM
[9] = target: Protein kinase C theta type (Homo sapiens) (UniProt Q04759); details: Compound concentration 1000.0 nM
[10] = target: Serine/threonine-protein kinase TBK1 (Homo sapiens) (UniProt Q9UHD2); details: Compound concentration 1000.0 nM
[11] = target: Receptor-interacting serine/threonine-protein kinase 1 (Homo sapiens) (UniProt Q13546); details: Compound concentration 1000.0 nM
[12] = target: Membrane-associated tyrosine- and threonine-specific cdc2-inhibitory kinase (Homo sapiens) (UniProt Q99640); details: Compound concentration 1000.0 nM
[13] = target: Histamine H2 receptor (Homo sapiens) (UniProt P25021); details: Compound concentration 10.0 uM
[14] = target: Serine/threonine-protein kinase RIO1 (Homo sapiens) (UniProt Q9BRS2); details: Compound concentration 1000.0 nM
[15] = target: Serine/threonine-protein kinase WNK1 (Homo sapiens) (UniProt Q9H4A3); details: Compound concentration 1000.0 nM
[16] = target: Vascular endothelial growth factor receptor 1 (Homo sapiens) (UniProt P17948); details: Compound concentration 1000.0 nM
[17] = target: Serotonin 2 (5-HT2) receptor (Rattus norvegicus) (UniProt P30994+P08909+P14842); experiment: 5HT2/R Eurofins-Panlabs selectivity data (BI); type: protein assay; details: Compound concentration 10.0 uM
[18] = target: Wee1-like protein kinase (Homo sapiens) (UniProt P30291); details: Compound concentration 1000.0 nM
[19] = target: 5-hydroxytryptamine receptor 1B (Homo sapiens) (UniProt P28222); details: Compound concentration 10.0 uM
[20] = target: Type-1 angiotensin II receptor (Oryctolagus cuniculus) (UniProt P34976); experiment: AT1 Eurofins-Panlabs selectivity data (BI); details: Homo sapiens; Compound concentration 10.0 uM
Type-1 angiotensin II receptor (Oryctolagus cuniculus), sequence (P34976 whole entry): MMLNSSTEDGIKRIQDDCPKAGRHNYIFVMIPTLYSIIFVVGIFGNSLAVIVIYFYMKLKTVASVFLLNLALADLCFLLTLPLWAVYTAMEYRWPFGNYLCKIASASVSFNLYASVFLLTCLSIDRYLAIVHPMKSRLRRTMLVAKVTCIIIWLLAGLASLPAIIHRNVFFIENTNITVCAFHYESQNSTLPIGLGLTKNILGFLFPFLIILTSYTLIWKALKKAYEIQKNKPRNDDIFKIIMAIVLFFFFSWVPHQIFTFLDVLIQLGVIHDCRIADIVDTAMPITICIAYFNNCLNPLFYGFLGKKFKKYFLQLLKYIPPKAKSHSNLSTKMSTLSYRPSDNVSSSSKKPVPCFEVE

[21] = target: Serine/threonine-protein kinase 17B (Homo sapiens) (UniProt O94768); details: Compound concentration 1000.0 nM
[22] = system: Tyrosine-protein kinase ABL1 (Homo sapiens), P00519 [H396P]; details: Compound concentration 1000.0 nM
[23] = system: Leucine-rich repeat serine/threonine-protein kinase 2 (Homo sapiens), Q5S007 [G2019S]; details: Compound concentration 1000.0 nM
[24] = target: Tyrosine-protein kinase Tec (Homo sapiens) (UniProt P42680); details: Compound concentration 1000.0 nM
[25] = target: Tyrosine-protein kinase Fgr (Homo sapiens) (UniProt P09769); details: Compound concentration 1000.0 nM
[26] = system: Tyrosine-protein kinase ABL1 (Homo sapiens), P00519 [T315I]; details: Compound concentration 1000.0 nM
[27] = target: Myotonin-protein kinase (Homo sapiens) (UniProt Q09013); details: Compound concentration 1000.0 nM
[28] = system: Mast/stem cell growth factor receptor Kit (Homo sapiens), P10721 [D816H]; details: Compound concentration 1000.0 nM
Mast/stem cell growth factor receptor Kit (Homo sapiens), P10721 [D816H], sequence (P10721 whole entry D816H): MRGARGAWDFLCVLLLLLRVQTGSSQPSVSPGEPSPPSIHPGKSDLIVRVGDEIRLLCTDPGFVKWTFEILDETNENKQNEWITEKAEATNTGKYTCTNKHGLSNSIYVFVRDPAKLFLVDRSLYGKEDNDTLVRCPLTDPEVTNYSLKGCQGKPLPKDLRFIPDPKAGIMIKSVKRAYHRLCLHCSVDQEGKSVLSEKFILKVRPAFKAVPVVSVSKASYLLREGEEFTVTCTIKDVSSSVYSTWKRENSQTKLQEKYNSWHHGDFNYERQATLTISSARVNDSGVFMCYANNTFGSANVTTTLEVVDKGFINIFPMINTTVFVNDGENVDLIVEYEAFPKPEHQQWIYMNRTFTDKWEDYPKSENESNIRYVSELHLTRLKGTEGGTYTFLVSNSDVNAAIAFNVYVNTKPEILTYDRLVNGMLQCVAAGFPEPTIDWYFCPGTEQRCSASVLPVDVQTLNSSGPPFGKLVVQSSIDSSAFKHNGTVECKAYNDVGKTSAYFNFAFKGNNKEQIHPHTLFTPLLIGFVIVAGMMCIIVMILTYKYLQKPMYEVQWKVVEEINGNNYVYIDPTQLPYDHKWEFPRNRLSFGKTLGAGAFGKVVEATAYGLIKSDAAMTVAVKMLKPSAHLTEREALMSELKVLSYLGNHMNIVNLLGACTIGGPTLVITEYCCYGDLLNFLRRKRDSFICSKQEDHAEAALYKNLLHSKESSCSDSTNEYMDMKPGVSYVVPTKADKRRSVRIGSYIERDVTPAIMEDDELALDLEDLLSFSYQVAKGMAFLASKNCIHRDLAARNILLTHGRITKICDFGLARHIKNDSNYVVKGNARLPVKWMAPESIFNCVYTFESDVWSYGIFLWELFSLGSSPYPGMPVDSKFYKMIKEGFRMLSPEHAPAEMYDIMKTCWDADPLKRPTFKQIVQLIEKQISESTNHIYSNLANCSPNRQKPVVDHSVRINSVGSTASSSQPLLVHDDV

[29] = target: Voltage-dependent N-type calcium channel subunit alpha-1B (Rattus norvegicus) (UniProt Q02294); experiment: CA+/N/RA Eurofins-Panlabs selectivity data (BI); details: Compound concentration 10.0 uM
Voltage-dependent N-type calcium channel subunit alpha-1B (Rattus norvegicus), sequence (Q02294 whole entry, looked up): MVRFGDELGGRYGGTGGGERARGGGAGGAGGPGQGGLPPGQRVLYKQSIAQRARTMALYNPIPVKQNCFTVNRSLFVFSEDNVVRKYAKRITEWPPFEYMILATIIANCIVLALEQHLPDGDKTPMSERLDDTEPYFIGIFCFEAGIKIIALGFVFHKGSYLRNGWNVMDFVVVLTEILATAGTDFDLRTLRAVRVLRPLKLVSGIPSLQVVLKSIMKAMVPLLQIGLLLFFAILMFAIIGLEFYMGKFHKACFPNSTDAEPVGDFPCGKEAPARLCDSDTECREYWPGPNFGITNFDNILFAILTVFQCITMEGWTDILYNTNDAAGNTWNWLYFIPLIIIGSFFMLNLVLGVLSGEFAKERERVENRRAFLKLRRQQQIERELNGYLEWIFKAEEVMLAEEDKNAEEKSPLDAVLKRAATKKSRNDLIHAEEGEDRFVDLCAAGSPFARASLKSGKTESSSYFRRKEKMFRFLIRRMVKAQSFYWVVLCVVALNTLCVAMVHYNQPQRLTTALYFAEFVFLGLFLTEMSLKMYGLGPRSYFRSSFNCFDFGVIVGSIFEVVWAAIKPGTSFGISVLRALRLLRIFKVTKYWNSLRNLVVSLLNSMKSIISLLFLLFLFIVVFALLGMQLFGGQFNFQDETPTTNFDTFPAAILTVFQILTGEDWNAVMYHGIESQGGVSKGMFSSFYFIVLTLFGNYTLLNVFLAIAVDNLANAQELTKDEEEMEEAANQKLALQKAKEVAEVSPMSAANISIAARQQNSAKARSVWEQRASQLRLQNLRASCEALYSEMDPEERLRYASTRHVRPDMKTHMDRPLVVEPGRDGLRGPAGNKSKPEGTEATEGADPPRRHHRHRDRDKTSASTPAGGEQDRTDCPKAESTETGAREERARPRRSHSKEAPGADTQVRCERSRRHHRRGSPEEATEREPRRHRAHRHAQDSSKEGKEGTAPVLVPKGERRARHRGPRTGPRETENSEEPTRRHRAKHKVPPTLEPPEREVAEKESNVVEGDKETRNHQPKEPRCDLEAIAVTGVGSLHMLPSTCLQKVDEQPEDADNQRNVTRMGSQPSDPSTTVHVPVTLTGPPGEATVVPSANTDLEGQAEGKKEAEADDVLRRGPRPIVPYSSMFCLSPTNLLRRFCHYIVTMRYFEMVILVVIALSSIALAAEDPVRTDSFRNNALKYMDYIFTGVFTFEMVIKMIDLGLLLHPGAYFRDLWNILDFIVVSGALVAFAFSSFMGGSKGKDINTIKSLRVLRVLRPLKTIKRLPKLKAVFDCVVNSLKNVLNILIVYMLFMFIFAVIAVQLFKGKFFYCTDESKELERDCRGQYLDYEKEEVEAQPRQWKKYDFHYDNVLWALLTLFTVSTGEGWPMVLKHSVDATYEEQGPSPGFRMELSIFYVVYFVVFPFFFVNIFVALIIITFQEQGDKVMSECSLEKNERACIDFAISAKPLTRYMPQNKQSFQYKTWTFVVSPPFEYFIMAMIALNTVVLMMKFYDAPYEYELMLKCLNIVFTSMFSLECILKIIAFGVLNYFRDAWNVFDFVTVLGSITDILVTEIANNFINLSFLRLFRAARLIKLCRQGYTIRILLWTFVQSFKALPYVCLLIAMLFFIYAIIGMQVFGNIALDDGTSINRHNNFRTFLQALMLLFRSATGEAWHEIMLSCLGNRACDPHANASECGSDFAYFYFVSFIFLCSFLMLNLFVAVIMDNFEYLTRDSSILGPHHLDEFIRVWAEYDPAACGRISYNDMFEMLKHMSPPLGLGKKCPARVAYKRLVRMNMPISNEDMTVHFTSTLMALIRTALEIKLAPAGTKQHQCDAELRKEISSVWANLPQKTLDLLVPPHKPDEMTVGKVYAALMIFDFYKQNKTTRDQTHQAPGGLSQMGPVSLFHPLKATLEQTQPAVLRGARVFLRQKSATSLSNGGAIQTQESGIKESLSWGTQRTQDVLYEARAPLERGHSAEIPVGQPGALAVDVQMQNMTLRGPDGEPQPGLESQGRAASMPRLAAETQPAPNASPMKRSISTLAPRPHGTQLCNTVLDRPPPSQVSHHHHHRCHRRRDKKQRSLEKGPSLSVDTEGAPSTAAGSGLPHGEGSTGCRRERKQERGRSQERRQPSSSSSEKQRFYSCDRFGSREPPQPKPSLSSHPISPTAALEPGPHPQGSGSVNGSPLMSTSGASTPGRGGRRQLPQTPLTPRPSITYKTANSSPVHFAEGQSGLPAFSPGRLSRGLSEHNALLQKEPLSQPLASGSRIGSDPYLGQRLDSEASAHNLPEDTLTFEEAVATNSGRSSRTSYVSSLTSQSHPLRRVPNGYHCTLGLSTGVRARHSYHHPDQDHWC

[30] = target: Serine/threonine-protein kinase DCLK2 (Homo sapiens) (UniProt Q8N568); details: Compound concentration 1000.0 nM
[31] = target: Calcium-dependent protein kinase 1 (Plasmodium falciparum) (UniProt P62344); details: Compound concentration 1000.0 nM
[32] = target: Dual specificity tyrosine-phosphorylation-regulated kinase 1B (Homo sapiens) (UniProt Q9Y463); details: Compound concentration 1000.0 nM
[33] = target: Serine/threonine-protein kinase ULK3 (Homo sapiens) (UniProt Q6PHR2); details: Compound concentration 1000.0 nM
Serine/threonine-protein kinase ULK3 (Homo sapiens), sequence (Q6PHR2 whole entry): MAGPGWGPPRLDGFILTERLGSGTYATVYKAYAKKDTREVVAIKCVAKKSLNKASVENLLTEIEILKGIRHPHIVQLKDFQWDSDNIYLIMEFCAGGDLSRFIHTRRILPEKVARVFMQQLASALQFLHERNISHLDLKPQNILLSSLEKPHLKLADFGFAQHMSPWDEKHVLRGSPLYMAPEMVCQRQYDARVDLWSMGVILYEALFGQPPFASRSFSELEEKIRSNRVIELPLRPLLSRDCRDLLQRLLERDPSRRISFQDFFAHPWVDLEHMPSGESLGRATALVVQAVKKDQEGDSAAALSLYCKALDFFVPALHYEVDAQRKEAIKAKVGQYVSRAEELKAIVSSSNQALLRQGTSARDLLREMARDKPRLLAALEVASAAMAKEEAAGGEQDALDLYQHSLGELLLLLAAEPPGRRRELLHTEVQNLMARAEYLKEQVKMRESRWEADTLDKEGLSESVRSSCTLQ

[34] = target: Death-associated protein kinase 1 (Homo sapiens) (UniProt P53355); details: Compound concentration 1000.0 nM
[35] = system: Receptor-type tyrosine-protein kinase FLT3 (Homo sapiens), P36888 [R834Q]; details: Compound concentration 1000.0 nM
[36] = target: Serine/threonine-protein kinase PAK 2 (Homo sapiens) (UniProt Q13177); details: Compound concentration 1000.0 nM
[37] = target: Serine/threonine-protein kinase ICK (Homo sapiens) (UniProt Q9UPZ9); details: Compound concentration 1000.0 nM
[38] = target: Cyclin-dependent kinase-like 5 (Homo sapiens) (UniProt O76039); details: Compound concentration 1000.0 nM
[39] = target: Serine/threonine-protein kinase PLK1 (Homo sapiens) (UniProt P53350); details: Compound concentration 1000.0 nM
[40] = target: Protein-tyrosine kinase 6 (Homo sapiens) (UniProt Q13882); details: Compound concentration 1000.0 nM
Protein-tyrosine kinase 6 (Homo sapiens), sequence (Q13882 whole entry, looked up): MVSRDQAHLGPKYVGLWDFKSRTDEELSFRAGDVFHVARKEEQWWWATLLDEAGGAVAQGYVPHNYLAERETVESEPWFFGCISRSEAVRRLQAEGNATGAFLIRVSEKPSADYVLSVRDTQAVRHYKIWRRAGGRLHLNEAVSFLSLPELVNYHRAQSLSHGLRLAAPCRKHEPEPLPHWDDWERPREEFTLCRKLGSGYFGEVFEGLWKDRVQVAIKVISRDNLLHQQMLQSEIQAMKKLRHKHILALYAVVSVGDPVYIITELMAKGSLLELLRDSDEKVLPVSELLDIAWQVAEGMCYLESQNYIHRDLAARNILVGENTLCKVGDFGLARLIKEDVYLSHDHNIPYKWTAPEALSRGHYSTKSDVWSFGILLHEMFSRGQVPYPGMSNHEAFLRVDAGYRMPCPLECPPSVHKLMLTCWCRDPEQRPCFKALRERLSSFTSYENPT

[41] = target: Mitogen-activated protein kinase kinase kinase 20 (Homo sapiens) (UniProt Q9NYL2); details: Compound concentration 1000.0 nM
[42] = target: Muscle, skeletal receptor tyrosine-protein kinase (Homo sapiens) (UniProt O15146); details: Compound concentration 1000.0 nM
[43] = target: 3-hydroxy-3-methylglutaryl-coenzyme A reductase (Rattus norvegicus) (UniProt P51639); experiment: HMGCOARED Eurofins-Panlabs selectivity data (BI); details: Compound concentration 10.0 uM
[44] = target: Endothelin-converting enzyme 1 (Homo sapiens) (UniProt P42892); experiment: ECE-1 (HU) Eurofins-Panlabs selectivity data (BI); details: Compound concentration 10.0 uM
[45] = target: Ephrin type-B receptor 6 (Homo sapiens) (UniProt O15197); details: Compound concentration 1000.0 nM

CCOCCn1cc(C(=O)Nc2ccc(-n3nc(-c4cccnc4)cc3C(F)(F)F)cn2)ccc1=O [BI 1935]
residual activity [1]: 100% | residual activity [2]: 88% | residual activity [3]: 83% | residual activity [4]: 100% | residual activity [5]: 97% | residual activity [6]: 100% | residual activity [7]: 87% | residual activity [8]: 100% | residual activity [9]: 73% | residual activity [10]: 76% | residual activity [11]: 88% | residual activity [12]: 100% | inhibition [13]: -3.48% | residual activity [14]: 100% | residual activity [15]: 82% | residual activity [16]: 100% | residual activity [17]: 87% | residual activity [18]: 100% | inhibition [19]: 18.8% | residual activity [20]: 93% | residual activity [21]: 81% | residual activity [22]: 94% | residual activity [23]: 100% | residual activity [24]: 100% | residual activity [25]: 100% | residual activity [26]: 96% | residual activity [27]: 100% | residual activity [28]: 79% | residual activity [29]: 102% | residual activity [30]: 89% | residual activity [31]: 71% | residual activity [32]: 39% | residual activity [33]: 61% | residual activity [34]: 100% | residual activity [35]: 100% | residual activity [36]: 84% | residual activity [37]: 99% | residual activity [38]: 90% | residual activity [39]: 100% | residual activity [40]: 100% | residual activity [41]: 73% | residual activity [42]: 99% | residual activity [43]: 87% | residual activity [44]: 84% | residual activity [45]: 94%
